Test [1] concerns the target Vasopressin V1a receptor (Homo sapiens, UniProt P37288). Put plainly: Binding affinity to vasopressin V1a receptor.
The target in test [2] is Vasopressin V1a receptor (Rattus norvegicus) (UniProt P30560). Description: Displacement of [3H]AVP from vasopressin V1a receptor in rat liver membrane at 25 uM by competitive displacement assay. The class given is cell membranes.
Test [3] has the same target. Put plainly: Displacement of [3H]AVP from vasopressin V1a receptor in rat liver membrane at 50 uM by competitive displacement assay. The test is classed as cell membranes. (In general: Loss of bound radioactivity is the signal in a displacement assay; it reports binding, not function.)
In test [4] the target is T1, Vasopressin V1a receptor (Rattus norvegicus, UniProt P30560). Description: Displacement of [3H]AVP from vasopressin V1a receptor in rat liver membrane. The test is classed as cell membranes.
In test [5] the target is T1, Vasopressin V1a receptor. Put plainly: Displacement of [3H]AVP from vasopressin V1a receptor in rat liver membrane by competitive displacement assay. The test is classed as cell membranes.

SMILES strings stand for the structures. Active and inactive are the calls of the source. The calls are words filed in the database; no cut-off is given here.

T1 sequence (P30560 whole entry): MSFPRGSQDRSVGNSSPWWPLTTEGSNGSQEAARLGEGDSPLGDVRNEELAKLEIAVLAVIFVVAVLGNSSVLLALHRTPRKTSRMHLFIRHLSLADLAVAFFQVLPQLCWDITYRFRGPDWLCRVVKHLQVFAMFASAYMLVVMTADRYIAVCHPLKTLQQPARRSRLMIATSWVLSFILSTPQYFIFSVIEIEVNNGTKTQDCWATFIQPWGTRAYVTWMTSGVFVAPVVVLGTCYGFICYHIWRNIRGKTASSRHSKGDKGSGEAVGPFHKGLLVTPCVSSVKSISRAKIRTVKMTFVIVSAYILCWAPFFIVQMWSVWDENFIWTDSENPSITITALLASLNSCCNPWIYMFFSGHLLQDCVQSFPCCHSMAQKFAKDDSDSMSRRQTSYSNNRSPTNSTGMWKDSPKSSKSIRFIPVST
Vasopressin V1a receptor (Rattus norvegicus), sequence (P30560 whole entry, looked up): as the sequence (P30560 whole entry) above
Vasopressin V1a receptor (Homo sapiens, UniProt P37288), sequence (P37288 whole entry): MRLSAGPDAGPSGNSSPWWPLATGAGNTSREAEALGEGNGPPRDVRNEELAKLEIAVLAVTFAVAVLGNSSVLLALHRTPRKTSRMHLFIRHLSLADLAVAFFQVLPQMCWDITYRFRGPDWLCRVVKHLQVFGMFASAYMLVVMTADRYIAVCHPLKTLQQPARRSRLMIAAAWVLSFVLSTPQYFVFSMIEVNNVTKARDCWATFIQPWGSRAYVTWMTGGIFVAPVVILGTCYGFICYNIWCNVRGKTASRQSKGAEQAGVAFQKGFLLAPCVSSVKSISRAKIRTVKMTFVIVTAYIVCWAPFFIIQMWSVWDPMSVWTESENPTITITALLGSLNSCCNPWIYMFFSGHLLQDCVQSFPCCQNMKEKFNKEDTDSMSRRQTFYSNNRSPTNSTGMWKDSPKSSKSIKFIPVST

`CC(=O)NCCCOc1ccc(C(=O)N2CCC(N3C(=O)CCc4ccccc43)CC2)cc1`: at Vasopressin V1a receptor [1], the Ki (in general, a dissociation constant, usually derived from enzyme kinetics or from competition with a known ligand) worked out at 0.35 µM.

`C=C1[C@H]2CC[C@H](CO)[C@@]23CC[C@H](C3)C1(C)C` [KHUSIMOL]: the inhibition entry in test [2] and in test [3] was “Active” throughout. In addition, at Vasopressin V1a receptor [4], the IC50 (as a rule, the concentration that gives 50% inhibition) was 125 µM. For the same compound, the Ki was determined as 41 µM on Vasopressin V1a receptor [4] and 53 µM at Vasopressin V1a receptor [5].
